Our source for the Activity values is ChEMBL document CHEMBL5506061, “Chb-M', an Inhibitor of the RUNX Family Binding to DNA, Induces Apoptosis in p53-Mutated Non-Small Cell Lung Cancer and Inhibits Tumor Growth and Repopulation In Vivo” (J Med Chem, 2024).

Activity calls are given as the source filed them. The calls are words filed in the database; no cut-off is given here.

The subject of series [1] is NCI-H2228-Luc. Put plainly: Anticancer activity against p53-mutated human NCI-H2228-Luc cells assessed as cell viability at 0.3 to 3 uM incubated for 72 hrs by SF - cell counting reagent based colorimetric assay. The following applies: dose 0.3-3 µM. The series is classed as functional.
In a further series the test system is BJ. The experiment in a line: Cytotoxicity against human BJ cells assessed as cell viability at 0.3 to 3 uM incubated for 72 hrs by SF - cell counting reagent based colorimetric assay. Conditions: dose 0.3-3 µM. The series is classed as toxicity.
Series [2] concerns NCI-H2228-Luc. Put plainly: In vivo antitumor activity against human NCI-H2228-Luc cells xenografted in CB17.Cg.Prkdc-scid Lystbg-j/CrlCrlj mouse assessed as reduction in tumor volume at 25 mg/kg, po administered every day (35 administration in total). The format is functional, organism-based. The following applies: time 35.0 day.
Series [3] has as its system NCI-H2228-Luc. The experiment in a line: In vivo antitumor activity against human NCI-H2228-Luc cells xenografted in CB17.Cg.Prkdc-scid Lystbg-j/CrlCrlj mouse assessed as prolonged reduction in tumor volume (cancer free) at 25 mg/kg, po administered every day (35 administration in total) measured after 15 days of last dose. The series is classed as functional, organism-based. Conditions: time 50.0 day. In general terms: In xenograft studies the graft and the host belong to different species.

Series [4] relates to NCI-H2228-Luc. The experiment in a line: In vivo antitumor activity against human NCI-H2228-Luc cells xenografted in CB17.Cg.Prkdc-scid Lystbg-j/CrlCrlj mouse assessed as prolonged reduction in tumor volume at 25 mg/kg, po administered every day (35 administration in total) measured after 70 days of last dose. The format is functional, organism-based. The following applies: time 70.0 day.

The test system of series [5] is NCI-H2228-Luc. Put plainly: Anticancer activity against p53-mutated human NCI-H2228-Luc cells assessed as cell viability incubated for 72 hrs by SF - cell counting reagent based colorimetric assay. The series is classed as functional. Conditions: dose 0.3-3 µM.
The test system of series [6] is NCI-H2228-Luc. Put plainly: Induction of apoptosis in p53-mutated human NCI-H2228-Luc cells assessed as early apoptotic cells at 0.3 to 3 uM incubated for 72 hrs by Annexin V-FITC and propidium iodide (PI) staining based flow cytometric analysis. The format is functional, cell-based. Conditions: dose 0.3-3 µM. Background: In flow cytometry, cells or beads pass a laser one at a time.

Series [7] deals with NCI-H2228-Luc. Put plainly: Induction of apoptosis in p53-mutated human NCI-H2228-Luc cells assessed as late apoptotic cells at 0.3 to 3 uM incubated for 72 hrs by Annexin V-FITC and propidium iodide (PI) staining based flow cytometric analysis. Conditions: dose 0.3-3 µM. The format is functional, cell-based.
For series [8], the system named is NCI-H2228-Luc. Put plainly: Induction of apoptosis in p53-mutated human NCI-H2228-Luc cells assessed as decrease in BCL11A mRNA expression at 0.3 to 1 uM incubated for 24 hrs by RT-qPCR analysis. The series is classed as functional, cell-based. Conditions: dose 0.3-1 µM. A general note: In qPCR the cycle at which signal appears reflects the starting amount.
Series [9] relates to NCI-H2228-Luc. The experiment in a line: Induction of apoptosis in p53-mutated human NCI-H2228-Luc cells assessed as increase in TAp73 mRNA expression incubated for 24 hrs by RT-qPCR analysis. The format is functional, cell-based.
Series [10] deals with NCI-H2228-Luc. Put plainly: Induction of RUNX1 mRNA level in human NCI-H2228-Luc cells at 0.3 to 3 uM incubated for 24 hrs by RT-qPCR analysis. The format is functional, cell-based. Conditions: dose 0.3-3 µM.
For series [11], the system named is NCI-H2228-Luc. The experiment in a line: Induction of RUNX2 mRNA level in human NCI-H2228-Luc cells at 0.3 to 3 uM incubated for 24 hrs by RT-qPCR analysis. The following applies: dose 0.3-3 µM. The series is classed as functional, cell-based.
In series [12] the test system is NCI-H2228-Luc. The experiment in a line: Induction of RUNX3 mRNA level in human NCI-H2228-Luc cells at 0.3 to 3 uM incubated for 24 hrs by RT-qPCR analysis. The following applies: dose 0.3-3 µM. The series is classed as functional, cell-based.
The subject of series [13] is NCI-H2228-Luc. The experiment in a line: In vivo antitumor activity against human NCI-H2228-Luc cells xenografted in CB17.Cg.Prkdc-scid Lystbg-j/CrlCrlj mouse assessed as reduction in tumor volume at 5 mg/kg, iv (tail vein) administered twice a week (10 injections in total) measured after 3 days. The series is classed as functional, organism-based. The following applies: time 38.0 day.

The nature of series [14]: Toxicity in CB17.Cg.Prkdc-scid Lystbg-j/CrlCrlj mouse xenografted with human NCI-H2228-Luc cells assessed as change in body weight at 5 mg/kg, iv (tail vein) administered twice a week (10 injections in total) measured after 3 days. The format is organism-based. Conditions: in vivo, 912 h, time 38 day.
The subject of series [15] is NCI-H2228-Luc. The experiment in a line: In vivo antitumor activity against human NCI-H2228-Luc cells xenografted in CB17.Cg.Prkdc-scid Lystbg-j/CrlCrlj mouse assessed as prolonged reduction in tumor volume at 5 mg/kg, iv (tail vein) administered twice a week (10 injections in total) measured after 35 days of last dose relative to alectinib and ceritinib. The series is classed as functional, organism-based. The following applies: time 70.0 day.

The nature of series [16]: Hematological toxicity in CB17.Cg.Prkdc-scid Lystbg-j/CrlCrlj mouse xenografted with human NCI-H2228-Luc cells assessed as decrease in platelets at 10 mg/kg, iv (tail vein) administered twice a week (10 injections in total) measured after 3 days. The series is classed as organism-based. Conditions: in vivo, 912 h, time 38 day.
A short description of series [17]: Hematological toxicity in wild type mouse C-kit positive fraction of bone marrow cells assessed as decrease in colony forming capacity at 10 uM. The format is cell-based. The following applies: bone marrow cell.
A short description of series [18]: Hematological toxicity in CB17.Cg.Prkdc-scid Lystbg-j/CrlCrlj mouse xenografted with human NCI-H2228-Luc cells assessed as change in peripheral blood cell count at 320 microg/kg, iv for 3 months. The series is classed as organism-based. Conditions: in vivo, 0.32 mg/kg, 2190 h, dose 320 µg/kg.
Series [19] deals with NCI-H2228-Luc. Put plainly: In vivo antitumor activity against human NCI-H2228-Luc cells xenografted in CB17.Cg.Prkdc-scid Lystbg-j/CrlCrlj mouse assessed as prolonged reduction in tumor volume (cancer free) at 25 mg/kg, po administered every day (35 administration in total) measured after 8 days of last dose. The format is functional, organism-based. The following applies: time 43.0 day.

Series [20] relates to NCI-H2228-Luc. Put plainly: In vivo antitumor activity against human NCI-H2228-Luc cells xenografted in CB17.Cg.Prkdc-scid Lystbg-j/CrlCrlj mouse assessed as prolonged reduction in tumor volume at 25 mg/kg, po administered every day (35 administration in total) measured after 77 days of last dose. Conditions: time 77.0 day. The format is functional, organism-based.

With `CN(C)CCCNC(=O)c1cc(NC(=O)c2cc(NC(=O)c3cc(NC(=O)c4cc(NC(=O)CCCNC(=O)c5nc(NC(=O)c6nc(NC(=O)c7cc(NC(=O)c8nc(NC(=O)CCNC(=O)CCCc9ccc(N(CCO)CCO)cc9)cn8C)cn7C)cn6C)cn5C)cn4C)cn3C)cn2C)cn1C`, the result with NCI-H2228-Luc [1] was inactive. In addition, in the series on BJ, the Activity entry is recorded as “Non-Toxic”.
Turning to `Cc1cc(Nc2ncc(Cl)c(Nc3ccccc3S(=O)(=O)C(C)C)n2)c(OC(C)C)cc1C1CCNCC1`, the result with NCI-H2228-Luc [2] and with NCI-H2228-Luc [3] was Active. In addition, the result in the series on NCI-H2228-Luc [4] was inactive.
On to `CN(C)CCCNC(=O)c1cc(NC(=O)c2cc(NC(=O)c3cc(NC(=O)c4cc(NC(=O)CCCNC(=O)c5nc(NC(=O)c6nc(NC(=O)c7cc(NC(=O)c8nc(NC(=O)CCNC(=O)CCCc9ccc(N(CCCl)CCCl)cc9)cn8C)cn7C)cn6C)cn5C)cn4C)cn3C)cn2C)cn1C`, for which the Activity result is “Dose-Dependent Effect” with NCI-H2228-Luc [5]; “Non-Toxic” with BJ; “Dose-Dependent Effect” in the series on NCI-H2228-Luc [9]; “Non-Toxic” in [14]; “Non-Toxic” in [16]; “Non-Toxic” in series [17]. The Activity entry in [18] is “Non-Toxic”. In addition, the result with NCI-H2228-Luc [6], in the series on NCI-H2228-Luc [7], in the series on NCI-H2228-Luc [8], in the series with NCI-H2228-Luc [10], with NCI-H2228-Luc [11] and with NCI-H2228-Luc [12] was Active. Besides, the outcome in the series with NCI-H2228-Luc [13] and in the series on NCI-H2228-Luc [15] was Active.
On to `CN(C)CCCNC(=O)c1cc(NC(=O)c2cc(NC(=O)c3nc(NC(=O)c4nc(NC(=O)CCCNC(=O)c5cc(NC(=O)c6cc(NC(=O)c7nc(NC(=O)c8nc(NC(=O)CCNC(=O)CCCc9ccc(N(CCCl)CCCl)cc9)cn8C)cn7C)cn6C)cn5C)cn4C)cn3C)cn2C)cn1C`, for which the result in the series on NCI-H2228-Luc [1] was inactive. For the same compound, in the series on BJ, the Activity result is “Non-Toxic”.
`CCc1cc2c(cc1N1CCC(N3CCOCC3)CC1)C(C)(C)c1[nH]c3cc(C#N)ccc3c1C2=O`: the result in the series on NCI-H2228-Luc [2] and in the series on NCI-H2228-Luc [19] was Active. For the same compound, the outcome in the series with NCI-H2228-Luc [20] was inactive.
Take `O=C(O)CCCc1ccc(N(CCCl)CCCl)cc1` [CHLORAMBUCIL]: in the series with NCI-H2228-Luc [1], the result was inactive. In addition, the Activity entry with BJ is recorded as “Non-Toxic”.
